Measurements as given in US10800741B2 (ANCUREALL PHARMACEUTICAL (SHANGHAI) CO., LTD., priority 2017, dated 2020).

Experiments:
Assay type in all cases: cell-based, Human
MOLM-13 (FLT3-ITD) = experiment: In vitro growth inhibition of MOLM-13 tumor cells (MTT/CCK8); conditions: Homo sapiens, MOLM-13; in vitro growth inhibition (or induction of apoptosis), cells cultured 3 to 5 days, MTT (CCK8); read-out: IC50 MOLM-13 (FLT3-ITD)
Text: (§1) Tumor cell lines are an effective model for studying in vitro tumor growth inhibition. In the present invention, a representative tumor cell line was selected to determine the cell growth inhibition activity of the present compound. All cell lines used were from ATCC, DSMZ, and cell banks of the Chinese Academy of Sciences. Cell culture conditions and methods were in accordance with the requirements of each cell line. Cells were subcultured in vitro for no more than 3 generations each time, and as required, single-clone purification and identification of cell lines could be carried out.
(§2) The cell culture media used were RPMI1640 (Gibco), DMEM (Gibco), MEM (Gibco), L15 (Gibco), IMDM (Gibco), McCOY'S5A, and William's (Gibco). 5-20% fetal bovine serum (Gibco), 1% double antibiotic, 2 mM glutamine, or 1 mM sodium pyruvate were added. The names, species, major gene characteristics, culture media and cell sources of the cell lines used are shown in table 1, wherein “amp” refers to gene amplification. “+++” refers to gene overexpression. The main genetic characteristics of cells were obtained from the COSMIC Cell Lines Project and related research papers, respectively.
(§3) Adherent cells were digested with 0.25% trypsin-EDTA (Gibco). Suspension culture cells were collected by centrifugation (1700 rpm, 3 minutes). The supernatant was discarded and the cells were counted. According to each cell growth cycle, different concentrations of cells were prepared (5˜10×10^4 cells per ml), and inoculated to 96-well plates (Corning), with 100 μl per well, and incubated overnight at 37° C., 5% CO2. The next day, the test compound was added to the cultured cells (2 wells in parallel). The final concentration of the solvent was less than 1/1,000. The cells were further cultured for 3 to 5 days and assayed by MTT.
(§4) The compound was stored at a concentration of 10 mM at −20° C. and diluted to 2- or 10-fold series prior to use. BGJ398 and AC220 were synthesized according to the methods of WO2006420A1 and US2007232604A1, respectively.
(§5) The adherent cells were taken out from the cell culture medium, and immediately added to a freshly prepared complete medium containing 10% CCK8 (5% FBS), 100 ul per hole. The suspended cells were directly added to a CCK8 reagent until reaching a final concentration of 10% and cultured for 1 to 4 hours.
(§6) T=optical density of drug-treated cell wells−optical density of blank control wells; T0=optical density of cell wells before drug treatment−optical density of blank control wells; C=optical density of solvent control wells−optical density of blank control wells. […] The experiments were repeated 1 to 3 times and a statistical analysis of data was conducted.

Karpas 299 (NPM-ALK) = experiment: In vitro growth inhibition of Karpas 299 tumor cells (MTT/CCK8); conditions: Homo sapiens, KARPAS-299; in vitro growth inhibition (or induction of apoptosis), cells cultured 3 to 5 days, MTT (CCK8); read-out: IC50 Karpas 299 (NPM-ALK)
Text: as §1, §2, §3, §4, §5, §6

H1581 (FGFR1 amp) = experiment: In vitro growth inhibition of H1581 tumor cells (MTT/CCK8); conditions: Homo sapiens, NCI-H1581; in vitro growth inhibition (or induction of apoptosis), cells cultured 3 to 5 days, MTT (CCK8); read-out: IC50 H1581 (FGFR1 amp)
Text: as §1, §2, §3, §4, §5, §6

H1703 (PDGFRa amp) = experiment: In vitro growth inhibition of H1703 tumor cells (MTT/CCK8); conditions: Homo sapiens, NCI-H1703; in vitro growth inhibition (or induction of apoptosis), cells cultured 3 to 5 days, MTT (CCK8); read-out: IC50 H1703 (PDGFRa amp)
Text: as §1, §2, §3, §4, §5, §6

KCL-22 (BCR-ABL) = experiment: In vitro growth inhibition of KCL-22 tumor cells (MTT/CCK8); conditions: Homo sapiens, KCL-22; in vitro growth inhibition (or induction of apoptosis), cells cultured 3 to 5 days, MTT (CCK8); read-out: IC50 KCL-22 (BCR-ABL)
Text: as §1, §2, §3, §4, §5, §6

KATO III (FGFR2 amp) = experiment: In vitro growth inhibition of KATO III tumor cells (MTT/CCK8); conditions: Homo sapiens, KATO III; in vitro growth inhibition (or induction of apoptosis), cells cultured 3 to 5 days, MTT (CCK8); read-out: IC50 KATO III (FGFR2 amp)
Text: as §1, §2, §3, §4, §5, §6

Kasumi-1 (KIT N822K) = experiment: In vitro growth inhibition of Kasumi-1 tumor cells (MTT/CCK8); conditions: Homo sapiens, Kasumi 1; in vitro growth inhibition (or induction of apoptosis), cells cultured 3 to 5 days, MTT (CCK8); read-out: IC50 Kasumi-1 (KIT N822K)
Text: as §1, §2, §3, §4, §5, §6

Hep3B2 (FGFR3/4+++) = experiment: In vitro growth inhibition of Hep3B2 tumor cells (MTT/CCK8); conditions: Homo sapiens, Hep3B; in vitro growth inhibition (or induction of apoptosis), cells cultured 3 to 5 days, MTT (CCK8); read-out: IC50 Hep3B2 (FGFR3/4+++)
Text: as §1, §2, §3, §4, §5, §6

Row | SMILES | IC50 (MOLM-13 (FLT3-ITD)) [nM] | IC50 (Karpas 299 (NPM-ALK)) [nM] | IC50 (H1581 (FGFR1 amp)) [nM] | IC50 (H1703 (PDGFRa amp)) [nM] | IC50 (KCL-22 (BCR-ABL)) [nM] | IC50 (KATO III (FGFR2 amp)) [nM] | IC50 (Kasumi-1 (KIT N822K)) [nM] | IC50 (Hep3B2 (FGFR3/4+++)) [nM]
1 | CNC(=O)c1cc2c(Oc3ccc(NC(=O)Nc4cc(C(C)(C)C)nn4C)c(Cl)c3)ccnc2cc1OCCOC [Compound 59, 4-{4-[3-(5-tert-butyl-2-methyl-2H-pyrazol-3-yl)-ureido]-3-chloro-phenoxy}-7-(2-methoxy-ethoxy)-quinolin-6-carboxylic acid methylamide] | 2.95 | 195 | 5.05 | 8.17 | 9.62 | 0.11 | 1.95 | 19.4
2 | CN(C)CCOc1cc2nccc(Oc3ccc(NC(=O)Nc4cc(C(C)(C)C)n[nH]4)c(Cl)c3Cl)c2cc1C(N)=O [Compound 93, 4-{4-[3-(5-tert-butyl-2H-pyrazol-3-yl)-ureido]-2,3-dichloro-phenoxy}-7-(2-dimethylamino-ethoxy)carboxamide] | 10.3 | 178 | 210 | 79.3 | 6.12 | 3.53 | 8.29 | 9.84
3 | CN1CCN(CCCOc2cc3nccc(Oc4ccc(NC(=O)Nc5cc(C(C)(C)C)n[nH]5)c(Cl)c4)c3cc2C(N)=O)CC1 [Compound 82, 4-{4-[3-(5-tert-butyl-2H-pyrazol-3-yl)-ureido]-3-chloro-phenoxy}-7-[3-(4-methyl-piperazin-1-yl)-propoxy]-quinolin-6-carboxamide] | 1.7 | 174 | 3.61 | 9.43 | 20.6 | 2.94 | 5.21 | 23.9
4 | CNC(=O)c1cc2c(Oc3ccc(NC(=O)Nc4cc(C(C)(C)C)nn4C)c(Cl)c3)ccnc2cc1OC [Compound 46, 4-{4-[3-(5-tert-butyl-2-methyl-2H-pyrazol-3-yl)-ureido]-3-chloro-phenoxy}-7-methoxy quinolin-6-carboxylic acid methylamide] | 6.98 | 384 | 3.06 | 8.8 | 8.17 | 0.98 | 14.4 | 39.1
5 | CNC(=O)c1cc2c(Oc3ccc(NC(=O)N4CCN(C)CC4)c(Cl)c3Cl)ccnc2cc1OCCOC [Compound 75, 4-{2,3-dichloro-4-[(4-methyl-piperazin-1-carbonyl)-amino]-phenoxy}-7-(2-methoxy-ethoxy)-quinolin-6-carboxylic acid methylamide] | > 1000 | > 1000 | > 1000 | > 1000 | > 1000 | > 1000 | > 1000 | > 1000
6 | COc1cc2nccc(Oc3ccc(NC(=O)Nc4cc(C(C)(C)C)on4)c(N4CCN(C)CC4)c3)c2cc1C(N)=O [Compound 10, 4-[4-[3-(5-tert-butyl-isoxazol-3-yl)-ureido]-3-(4-methyl-piperazin-1-yl)-phenoxy]-7-methoxyquinolin-6-carboxamide] | > 1000 | > 1000 | > 1000 | > 1000 | > 1000 | > 1000 | 71.9 | > 1000
7 | COc1cc2nccc(Nc3ccc(NC(=O)Nc4cc(C(C)(C)C)on4)cc3C)c2cc1C(N)=O [Compound 99, 4-{4-[3-(5-tert-butyl-isoxazol-3-yl)-ureido]-2-methyl-phenylamino}-7-methoxy-quinolin-6-carboxamide] | 3.41 | > 1000 | 294 | 128 | 264 | 37.8 | 355 | 862
8 | CNC(=O)c1cc2c(Oc3ccc(NC(=O)Nc4cc(C(C)(C)C)no4)c(Cl)c3)ccnc2cc1OC [Compound 15, 4-{4-[3-(3-tert-butyl-isoxazol-5-yl)-ureido]-3-chloro-phenoxy}-7-methoxyquinolin-6-carboxylic acid methylamide] | 5.25 | 516 | 1.06 | 12.9 | 4.09 | 1.34 | 5.43 | 24.1
9 | CC(C)(C)c1cc(NC(=O)Nc2ccc(Oc3ccnc4cc(OCCN5CCOCC5)c(C(N)=O)cc34)c(Cl)c2Cl)[nH]n1 [Compound 94, 4-{4-[3-(5-tert-butyl-2H-pyrazol-3-yl)-ureido]-2,3-dichloro-phenoxy}-7-(2-morpholin-4-yl-ethoxy)-quinolin-6-carboxamide] | 1.61 | 65 | 4.17 | 5.03 | 3.66 | 0.89 | 4.22 | 10.6
10 | COc1cc2nccc(Oc3ccc(NC(=O)Nc4cc(C(C)C)n[nH]4)c(Cl)c3)c2cc1C(N)=O [Compound 40, 4-{3-chloro-4-[3-(5-isopropyl-2H-pyrazol-3-yl)-ureido]-phenoxy}-7-methoxyquinolin-6-carboxamide] | 19.6 | 721 | 127 | 93 | 112 | 2.53 | 106 | 446
11 | COCCNC(=O)c1cc2c(Oc3ccc(NC(=O)Nc4cc(C(C)(C)C)n[nH]4)c(Cl)c3)ccnc2cc1OC [Compound 62, 4-{4-[3-(5-tert-butyl-2H-pyrazol-3-yl)-ureido]-3-chloro-phenoxy}-7-methoxyquinolin-6-carboxylic acid (2-methoxy-ethyl)-amide] | 7.83 | 312 | 13.7 | 93.1 | 25.8 | 1.89 | 47.5 | 73.2
12 | COCCOc1cc2nccc(Oc3ccc(NC(=O)Nc4cc(C(C)(C)C)nn4C)c(Cl)c3)c2cc1C(N)=O [Compound 44, 4-{4-[3-(5-tert-butyl-2-methyl-2H-pyrazol-3-yl)-ureido]-3-chloro-phenoxy}-7-(2-methoxy-ethoxy)-quinolin-6-carboxamide] | 3.81 | 298 | 1.61 | 6.49 | 2.21 | 1.08 | 7.94 | 11.3
13 | COc1cc2nc(Cl)cc(Oc3ccc(NC(=O)Nc4cc(C(C)(C)C)nn4C)c(Cl)c3)c2cc1C(N)=O [Compound 39, 4-{4-[3-(5-tert-butyl-2-methyl-2H-pyrazol-3-yl)-ureido]-3-chloro-phenoxy}-2-chloro-7-methoxyquinolin-6-carboxamide] | > 1000 | > 1000 | > 1000 | > 1000 | > 2500 | > 1000 | > 1000 | > 1000
14 | COc1cc2nccc(Oc3ccc(NC(=O)Nc4cc(C(C)(C)C)n[nH]4)cn3)c2cc1NC(C)=O [Compound 104, N-(4-{5-[3-(5-tert-butyl-2H-pyrazol-3-yl)-ureido]-pyridin-2-yloxy}-7-methoxy-quinolin-6-yl)-acetamide] | 1.17 | 768 | 160 | 163 | > 1000 | 40.1 | > 1000 | 526
